Laboratory results from the supplement of paper PMC10733146.

Columns and labels:
Experiment in all cases: viability relative to DMSO control (fraction); higher = less drug effect (more viable cells)
Conditions in all cases: 48 h
[1] = system: primary ALL patient cells (S048)
In short: (§1)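 Compounds were pre-plated at five concentrations, one well each, in 384-well plates, and primary mononuclear tumour cells were plated on them at 4 × 10^4 cells per well. The cells, fresh or cryopreserved, had been Ficoll-isolated from blood or bone marrow or taken from processed lymph node. After 48 h at 37 °C and 5% CO2 in RPMI-1640 with penicillin/streptomycin, L-glutamine and human serum, viability was read as CellTiter-Glo luminescence relative to the median of 16 inner DMSO wells.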

[2] = system: primary AML patient cells (S006)
In short: as §1

[3] = system: primary AML patient cells (S009)
In short: as §1

[4] = system: primary AML patient cells (S012)
In short: as §1

[5] = system: primary AML patient cells (S037)
In short: as §1

[6] = system: primary AML patient cells (S055)
In short: as §1

[7] = system: primary AML patient cells (S056)
In short: as §1

[8] = system: primary AML patient cells (S072)
In short: as §1

[9] = system: primary AML patient cells (S079)
In short: as §1

[10] = system: primary AML patient cells (S089)
In short: as §1

[11] = system: primary AML patient cells (S091)
In short: as §1

[12] = system: primary CLL patient cells (S031)
In short: as §1

[13] = system: primary DLBCL patient cells (S082)
In short: as §1

[14] = system: primary FL patient cells (S022)
In short: as §1

[15] = system: primary FL patient cells (S087)
In short: as §1

[16] = system: primary MCL patient cells (S041)
In short: as §1

[17] = system: primary MCL patient cells (S053)
In short: as §1

[18] = system: primary MCL patient cells (S063)
In short: as §1

[19] = system: primary MCL patient cells (S068)
In short: as §1

[20] = system: primary T-PLL patient cells (S008)
In short: as §1

CC[C@H](Nc1ncnc2[nH]cnc12)c1nc2cccc(F)c2c(=O)n1-c1ccccc1 [Idelalisib]
viability ([1]; 0.0032 µM): 1.01 | viability ([1]; 0.016 µM): 0.934 | viability ([1]; 0.08 µM): 0.861 | viability ([1]; 0.4 µM): 0.751 | viability ([1]; 2 µM): 0.752 | viability ([2]; 0.0032 µM): 1.02 | viability ([2]; 0.016 µM): 0.97 | viability ([2]; 0.08 µM): 0.943 | viability ([2]; 0.4 µM): 0.885 | viability ([2]; 2 µM): 0.882 | viability ([3]; 0.0032 µM): 0.985 | viability ([3]; 0.016 µM): 1.02 | viability ([3]; 0.08 µM): 1.04 | viability ([3]; 0.4 µM): 0.998 | viability ([3]; 2 µM): 0.905 | viability ([4]; 0.0032 µM): 1.02 | viability ([4]; 0.016 µM): 0.982 | viability ([4]; 0.08 µM): 1.18 | viability ([4]; 0.4 µM): 1.04 | viability ([4]; 2 µM): 1.06 | viability ([5]; 0.0032 µM): 0.976 | viability ([5]; 0.016 µM): 1.03 | viability ([5]; 0.08 µM): 1.03 | viability ([5]; 0.4 µM): 1.81 | viability ([5]; 2 µM): 0.983 | viability ([6]; 0.0032 µM): 1 | viability ([6]; 0.016 µM): 0.961 | viability ([6]; 0.08 µM): 0.909 | viability ([6]; 0.4 µM): 0.972 | viability ([6]; 2 µM): 0.875 | viability ([7]; 0.0032 µM): 1.02 | viability ([7]; 0.016 µM): 1.02 | viability ([7]; 0.08 µM): 0.954 | viability ([7]; 0.4 µM): 0.896 | viability ([7]; 2 µM): 0.911 | viability ([8]; 0.0032 µM): 0.995 | viability ([8]; 0.016 µM): 0.883 | viability ([8]; 0.08 µM): 0.922 | viability ([8]; 0.4 µM): 0.82 | viability ([8]; 2 µM): 0.803 | viability ([9]; 0.0032 µM): 1.01 | viability ([9]; 0.016 µM): 0.954 | viability ([9]; 0.08 µM): 0.906 | viability ([9]; 0.4 µM): 0.844 | viability ([9]; 2 µM): 0.793 | viability ([10]; 0.0032 µM): 0.965 | viability ([10]; 0.016 µM): 0.739 | viability ([10]; 0.08 µM): 0.924 | viability ([10]; 0.4 µM): 0.671 | viability ([10]; 2 µM): 0.58 | viability ([11]; 0.0032 µM): 0.929 | viability ([11]; 0.016 µM): 0.838 | viability ([11]; 0.08 µM): 0.773 | viability ([11]; 0.4 µM): 0.697 | viability ([11]; 2 µM): 0.558 | viability ([12]; 0.0032 µM): 0.974 | viability ([12]; 0.016 µM): 0.861 | viability ([12]; 0.08 µM): 0.731 | viability ([12]; 0.4 µM): 0.654 | viability ([12]; 2 µM): 0.569 | viability ([13]; 0.0032 µM): 1.05 | viability ([13]; 0.016 µM): 0.893 | viability ([13]; 0.08 µM): 0.812 | viability ([13]; 0.4 µM): 0.768 | viability ([13]; 2 µM): 0.668 | viability ([14]; 0.0032 µM): 1.05 | viability ([14]; 0.016 µM): 1.09 | viability ([14]; 0.08 µM): 0.955 | viability ([14]; 0.4 µM): 0.939 | viability ([14]; 2 µM): 0.929 | viability ([15]; 0.0032 µM): 0.984 | viability ([15]; 0.016 µM): 0.923 | viability ([15]; 0.08 µM): 0.848 | viability ([15]; 0.4 µM): 0.78 | viability ([15]; 2 µM): 0.793 | viability ([16]; 0.0032 µM): 0.949 | viability ([16]; 0.016 µM): 0.908 | viability ([16]; 0.08 µM): 0.886 | viability ([16]; 0.4 µM): 0.893 | viability ([16]; 2 µM): 0.887 | viability ([17]; 0.0032 µM): 1.02 | viability ([17]; 0.016 µM): 0.96 | viability ([17]; 0.08 µM): 0.946 | viability ([17]; 0.4 µM): 0.877 | viability ([17]; 2 µM): 0.815 | viability ([18]; 0.0032 µM): 0.918 | viability ([18]; 0.016 µM): 0.792 | viability ([18]; 0.08 µM): 0.73 | viability ([18]; 0.4 µM): 0.693 | viability ([18]; 2 µM): 0.595 | viability ([19]; 0.0032 µM): 0.888 | viability ([19]; 0.016 µM): 0.755 | viability ([19]; 0.08 µM): 0.663 | viability ([19]; 0.4 µM): 0.612 | viability ([19]; 2 µM): 0.558 | viability ([20]; 0.0032 µM): 1 | viability ([20]; 0.016 µM): 0.97 | viability ([20]; 0.08 µM): 1.03 | viability ([20]; 0.4 µM): 0.99 | viability ([20]; 2 µM): 0.992
